In patent US4175081A, “5-Substituted thiadiazole ureas” (priority 1977, dated 1979):

Columns and labels:
[1] = system: Crabgrass (CG); test: Pre-emergence herbicide test; type: in vivo, Digitaria sanquinalis; settings: Digitaria sanguinalis, pre-emergence, 336 h; 8 lb/acre; two weeks after treatment
In short: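 Crabgrass (Digitaria sanquinalis) was surface seeded in 3' plastic pots of potting soil, covered with screened soil, and watered by sub-irrigation in greenhouse trays. Pots were seeded one day before spraying in a hood with a moving belt and fixed nozzle. Plants stayed in the greenhouse on sub-irrigation, and pre-emergence control was rated visually two weeks after treatment.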

[2] = system: Yellow foxtail grass (YF); test: Pre-emergence herbicide test; type: in vivo, Setaria glauca; settings: Setaria, 336 h, 8 lb/acre, two weeks after treatment
In short: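 Visual rating of injury/control made two weeks after a pre-emergence spray of 8 or 4 lbs active per acre (38 gal/acre) onto pots seeded the previous day. Greenhouse watering by sub-irrigation only.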

[3] = system: Johnson grass (JG); test: Pre-emergence herbicide test; type: in vivo, Sorgum helepense; settings: Sorghum halepense, 336 h, 8 lb/acre, two weeks after treatment
In short: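 Visual injury or control rating two weeks post-treatment, after pre-emergence spray of 8 or 4 lbs active per acre (38 gal/acre) onto pots sown the previous day. Greenhouse watering by sub-irrigation only.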

[4] = system: Barnyard grass (BG); test: Pre-emergence herbicide test; type: in vivo; settings: Echinochloa crus-galli, 336 h, 8 lb/acre, two weeks after treatment
In short: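 Greenhouse pre-emergence spray test: pots seeded one day before treatment received compound at rates of 8 or 4 lb/acre (38 gal/acre). Visual injury/control scores for Echinochloa crus-galli taken at two weeks, with watering by sub-irrigation only.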

[5] = system: Amaranth pigweed (PW); test: Pre-emergence herbicide test; type: in vivo, Amaranthus retroflexus; settings: 336 h, 8 lb/acre, two weeks after treatment
In short: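 Visual injury or control ratings were made at two weeks on pre-emergence pots, sub-irrigated in the greenhouse. Seeds were sown a day before a hood spray delivering 8 lbs/acre (or 4 lbs/acre) of compound in 38 gallons per acre.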

[6] = system: Turnip (TP); test: Pre-emergence herbicide test; type: in vivo, Brassica sp.; settings: Brassica rapa, pre-emergence, 336 h; 8 lb/acre; two weeks after treatment
In short: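 In this pre-emergence greenhouse test, turnip was seeded on the surface of potting soil in 3' plastic pots, lightly covered with screened soil, and watered from below. One day later the pots were sprayed in a belt-fed spray hood. Watering continued only by sub-irrigation, and percent control was visually scored two weeks after treatment.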

[7] = system: Cotton (CT); test: Pre-emergence herbicide test; type: in vivo, Gossypium hirsutum var. DPL smooth leaf; settings: Gossypium hirsutum, 336 h, 8 lb/acre, two weeks after treatment
In short: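 Visual injury/control ratings were taken at two weeks post-spray. Pots seeded a day earlier received compound pre-emergence at 8 lbs/acre, or 4 lbs/acre, in a 38 gallon/acre spray volume, and were then held in the greenhouse, watered only from below.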

[8] = system: Corn (CN); test: Pre-emergence herbicide test; type: in vivo; settings: Zea mays, 336 h, 8 lb/acre, two weeks after treatment
In short: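 Visual injury/control ratings were made 2 weeks post-spray on corn pots seeded (4 seeds, seed-diameter depth) the day before treatment. Application was a belt-hood spray of 38 gal/acre delivering 8 lbs active per acre, with a 4 lbs/acre rate also formulated. Watering was by sub-irrigation throughout.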

[9] = system: Bean (BN); test: Pre-emergence herbicide test; type: in vivo, Phaseolus vulgaris var. Black Valentine; settings: Phaseolus vulgaris, 336 h, 8 lb/acre, two weeks after treatment
In short: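 Visual injury/control ratings were taken two weeks post-spray on sub-irrigated Phaseolus vulgaris var. Black Valentine. Pots were sown a day before treatment. Pre-emergence spray delivered 8 lbs actual compound per acre (or 4 lbs/acre) at 38 gallons per acre.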

[10] = system: Crabgrass (CG); test: Post-emergence herbicide test; type: in vivo, Digitaria sanquinalis; settings: Digitaria sanguinalis, post-emergence, 336 h, two weeks after treatment; for pest or weed control at 8966.8 g/ha: 8 lb/acre
In short: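 Crabgrass (Digitaria sanquinalis) was surface seeded individually in 3' plastic pots of potting soil, covered with screened soil, and watered by sub-irrigation in greenhouse trays. Planting was staggered so seedlings reached the target stage together. Post-emergence sprays were applied in a hood with a removable belt and fixed nozzle, and control was visually rated two weeks after treatment.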

[11] = system: Yellow foxtail grass (YF); test: Post-emergence herbicide test; type: in vivo, Setaria glauca; settings: Setaria, 336 h, two weeks after treatment; for pest or weed control at 8966.8 g/ha: 8 lb/acre
In short: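 Visual rating of injury/control made 2 weeks post-spray. Seedlings at a uniform growth stage in soil-filled pots received a hood spray of 8 lbs/acre active compound, 38 gallons/acre volume, with a 4 lbs/acre rate also formulated. Watering was by sub-irrigation only.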

[12] = system: Johnson grass (JG); test: Post-emergence herbicide test; type: in vivo, Sorgum helepense; settings: Sorghum halepense, 336 h, two weeks after treatment; for pest or weed control at 8966.8 g/ha: 8 lb/acre
In short: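 Visual injury or control scores taken 2 weeks after a post-emergence spray of pot-grown plants. Application was 8 lbs/acre (or 4 lbs/acre) in 38 gal/acre. Plants were held in the greenhouse with sub-irrigation only.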

[13] = system: Barnyard grass (BG); test: Post-emergence herbicide test; type: in vivo; settings: Echinochloa crus-galli, 336 h, two weeks after treatment; for pest or weed control at 8966.8 g/ha: 8 lb/acre
In short: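 Greenhouse pot-grown barnyard grass seedlings sprayed post-emergence at 8 lbs active compound per acre (some at 4 lbs/acre) in 38 gallons per acre, then sub-irrigated. Injury or control rated visually two weeks after treatment.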

[14] = system: Amaranth pigweed (PW); test: Post-emergence herbicide test; type: in vivo, Amaranthus retroflexus; settings: 336 h, two weeks after treatment; for pest or weed control at 8966.8 g/ha: 8 lb/acre
In short: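 Visual injury or control ratings were made two weeks after spraying, with greenhouse watering by sub-irrigation only. Treatment was post-emergence, when pigweed seedlings had 1 or 2 true leaves, at 8 lbs active compound per acre (4 lbs/acre formulations also made) in a 38 gallons-per-acre spray volume.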

[15] = system: Turnip (TP); test: Post-emergence herbicide test; type: in vivo, Brassica sp.; settings: Brassica rapa, post-emergence, 336 h, two weeks after treatment; for pest or weed control at 8966.8 g/ha: 8 lb/acre
In short: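 A greenhouse post-emergence herbicide test on turnip. Seeds were sown on the surface of potting soil in 3' plastic pots, lightly covered with screened soil and watered from below. Planting was timed so seedlings had 1 or 2 true leaves above the cotyledons at spraying, done in a hood with a fixed nozzle. Control or injury was scored by eye after two weeks.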

[16] = system: Cotton (CT); test: Post-emergence herbicide test; type: in vivo, Gossypium hirsutum var. DPL smooth leaf; settings: Gossypium hirsutum, post-emergence, 336 h, two weeks after treatment; for pest or weed control at 8966.8 g/ha: 8 lb/acre
In short: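 This greenhouse post-emergence test measured how well spray treatments controlled cotton. Seedlings of Gossypium hirsutum var. DPL smooth leaf, with expanded cotyledons and a first true leaf 1' in length, were sprayed with 50 ml formulations in a belt-fed spray hood. They were then returned to the greenhouse and watered only by sub-irrigation. Injury was scored visually as % control after two weeks.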

[17] = system: Corn (CN); test: Post-emergence herbicide test; type: in vivo; settings: Zea mays, 336 h, two weeks after treatment; for pest or weed control at 8966.8 g/ha: 8 lb/acre
In short: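 Greenhouse seedlings grown in potting soil and sprayed post-emergence at 8 lbs compound/acre (formulations also made for 4 lbs/acre) in 38 gallons/acre spray volume. Watering by sub-irrigation only. Injury or control rated visually two weeks after treatment.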

[18] = system: Bean (BN); test: Post-emergence herbicide test; type: in vivo, Phaseolus vulgaris var. Black Valentine; settings: Phaseolus vulgaris, post-emergence, 336 h, two weeks after treatment; for pest or weed control at 8966.8 g/ha: 8 lb/acre
In short: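 Bean seedlings (Phaseolus vulgaris var. Black Valentine) were grown in potting soil in 3' pots until the primary leaves expanded. They were then sprayed under a hood with a removable belt and fixed nozzle, using 50 ml formulations. Afterward they were returned to the greenhouse and watered only by sub-irrigation. Percent control was judged visually two weeks after treatment.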

[19] = system: variety of crops and weed species; test: Pre- and post-emergence herbicide tests, overall assessment of Tables III-VI; type: in vivo; settings: data of Tables III-VI
In short: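 Crops and weeds grown in potting soil were sprayed at 8 lbs. compound per acre in 38 gallons per acre, pre-emergence pots seeded one day before treatment. Injury or control was visually rated two weeks after treatment.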

Structure (SMILES)	pest or weed control at 8966.8 g/ha [1] [%]	pest or weed control at 8966.8 g/ha [2] [%]	pest or weed control at 8966.8 g/ha [3] [%]	pest or weed control at 8966.8 g/ha [4] [%]	pest or weed control at 8966.8 g/ha [5] [%]	pest or weed control at 8966.8 g/ha [6] [%]	pest or weed control at 8966.8 g/ha [7] [%]	pest or weed control at 8966.8 g/ha [8] [%]	pest or weed control at 8966.8 g/ha [9] [%]	pest or weed control at 8966.8 g/ha [10] [%]	pest or weed control at 8966.8 g/ha [11] [%]	pest or weed control at 8966.8 g/ha [12] [%]	pest or weed control at 8966.8 g/ha [13] [%]	pest or weed control at 8966.8 g/ha [14] [%]	pest or weed control at 8966.8 g/ha [15] [%]	pest or weed control at 8966.8 g/ha [16] [%]	pest or weed control at 8966.8 g/ha [17] [%]	pest or weed control at 8966.8 g/ha [18] [%]	herbicidal effectiveness / selectivity, in words [19]	further results
CN(C)C(=O)Nc1nnc(C(F)(F)F)s1 [Example 2, 1,1-Dimethyl-3-[5-Trifluoromethyl-2-(1,3,4-Thiadiazolyl)] Urea]	90	90	90	90	90	100	70	50	80	60	60	40	60	90	80	90	100	60	extremely effective when applied to a variety of crops and weed species	pest or weed control ([10]; 2 lb/acre): 100%; pest or weed control at 4483.4 g/ha ([10]; 4 lb/acre): 80%; pest or weed control ([11]; 2 lb/acre): 90%; pest or weed control at 4483.4 g/ha ([11]; 4 lb/acre): 90%; pest or weed control ([12]; 2 lb/acre): 90%; pest or weed control at 4483.4 g/ha ([12]; 4 lb/acre): 30%; pest or weed control at 2241.7 g/ha ([13]; 2 lb/acre): 90%; pest or weed control at 4483.4 g/ha ([13]; 4 lb/acre): 90%; pest or weed control at 2241.7 g/ha ([14]; 2 lb/acre): 100%; pest or weed control at 4483.4 g/ha ([14]; 4 lb/acre): 100%; pest or weed control at 2241.7 g/ha ([15]; 2 lb/acre): 100%; pest or weed control at 4483.4 g/ha ([15]; 4 lb/acre): 90%; pest or weed control at 2241.7 g/ha ([16]; 2 lb/acre): 100%; pest or weed control at 4483.4 g/ha ([16]; 4 lb/acre): 90%; pest or weed control ([17]; 2 lb/acre): 100%; pest or weed control at 4483.4 g/ha ([17]; 4 lb/acre): 100%; pest or weed control at 2241.7 g/ha ([18]; 2 lb/acre): 80%; pest or weed control at 4483.4 g/ha ([18]; 4 lb/acre): 70%
CNC(=O)Nc1nncs1 [Example 35]	10	10	10	10	10	10	100	10	60	10	10	10	10	100	20	50	10	30	more selective when applied to a certain crop or weed species	–
CNC(=O)Nc1nnc(COC)s1 [Example 25]	20	10	10	10	10	10	100	10	70	30	20	30	20	40	30	100	30	100	more selective when applied to a certain crop or weed species	–
